{"source": "patent US20230106506A1", "about": "“NOVEL PqsR INVERSE AGONISTS” (Helmholtz-Zentrum Fur Infektionsforschung GmbH, priority 2020, published 2023)", "key": {"[1]": {"system": "production of signal molecules HHQ and PQS", "details": "cited from earlier work"}, "[2]": {"system": "virulence factor elastase", "details": "cited from earlier work"}, "[3]": {"system": "P. aeruginosa pyocyanin production", "details": "in cellulo, literature value; read-out: inhibition of virulence factor pyocyanin production: IC50; cited from earlier work"}, "[4]": {"assay": "Kinetic turbidimetric aqueous solubility", "assay_type": "physicochemical", "details": "aqueous buffer, kinetic from dmso stock; PBS buffer, final DMSO 2%, absorbance 620 nm; read-out: Kinetic Turbidimetric Aqueous Solubility at room temperature for 5 min", "method": "Kinetic Turbidimetric Aqueous Solubility at room temperature for 5 min. […] Data was analyzed by fitting a four parameter sigmoidal function to the measured and normalized absorbances and AUC calculation providing access to Log S (decadic logarithm of the solubility)."}, "[5]": {"assay": "Metabolic stability in mouse liver microsomes (MLM)", "assay_type": "in vitro ADME", "details": "1 μM compound, 0.5 mg/mL MLM, 1 mM NADPH, 37° C., read-out: half-life (t1/2) towards MLM", "outline": "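Phase I stability: 1 μM compound incubated at 37° C with 0.5 mg/mL mouse liver microsomes and 1 mM NADPH, sampled at 0-30 min and quenched in acetonitrile. Remaining parent measured by HPLC-MS/MS to derive half-life.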"}, "[6]": {"system": "P. aeruginosa pyocyanin production", "assay": "Pyocyanin assay", "assay_type": "cell-based, P. aeruginosa strain PA14", "details": "Pseudomonas aeruginosa, PA14, 16 h, read-out: IC50-value towards pyocyanin production", "outline": "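PA14 washed overnight culture in PPGAS diluted to OD600 0.02, grown 16 h with compound (37 °C, 200 rpm, 75% RH). Pyocyanin extracted with chloroform, back-extracted into 0.2 M HCl. OD520 measured and normalised to OD600.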"}, "PqsR": {"target": "T1, PqsR (Pseudomonas aeruginosa, UniProt Q9I4X0)", "T1 construct": "transfected with pEAL08-2 plasmid encoding pqsR under control of promoter tac; expressed in transfected cells; host or cells: Escherichia coli DH5alpha carrying pEAL08-2", "T1 sequence (Q9I4X0 whole entry)": "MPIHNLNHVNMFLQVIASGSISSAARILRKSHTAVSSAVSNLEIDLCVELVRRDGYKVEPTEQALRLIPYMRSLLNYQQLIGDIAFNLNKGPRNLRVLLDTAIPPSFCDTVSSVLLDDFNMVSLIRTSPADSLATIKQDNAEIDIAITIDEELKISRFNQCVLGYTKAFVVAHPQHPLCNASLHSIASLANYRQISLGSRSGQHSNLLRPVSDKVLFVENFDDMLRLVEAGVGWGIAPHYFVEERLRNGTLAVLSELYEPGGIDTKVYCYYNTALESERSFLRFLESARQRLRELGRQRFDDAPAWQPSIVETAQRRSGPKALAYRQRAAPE", "assay": "PqsR reporter gene assay in E. coli (β-galactosidase)", "assay_type": "cell-based", "method": "Inhibition of pqsR-dependent gene expression of test compounds was determined in an E. coli based β-galactosidase reporter gene assay. Escherichia coli DH5α was transfected with pEAL08-2 plasmid encoding pqsR under control of promoter tac and β-galactosidase reporter gene lacZ under control of promoter pqsA. Antagonistic effects of compounds were evaluated in the presence of/in competition to 50 nM PQS. A positive control was used to ensure the reliability of individual assays. First, PQS was diluted in methanol and added to the wells of a glass coated 96-deep-well plate, and the solvent was evaporated. Then, compounds were added in 5 μL DMSO to final concentrations of 0.001-10 μM. Overnight cultures of E. coli DH5a×pEAL08-2 were diluted 1:100 in LB medium with ampicillin (50 μg/ml) and incubated at 37° C. with shaking until it reached an OD600 of 0.2. Finally, 995 μL of culture was added to each well and the β-galactosidase activity was determined by ortho-nitrophenyl-β-galactoside conversion in permeabilized cells after a 2.5 h incubation period (37° C., 180 rpm). OD600, OD420, and OD550 were measured using POLARstar Omega (BMG Labtech, Ortenberg, Germany), and the activity was expressed as ratio of the slope of β-galactosidase activity between basal control (no PQS) and solvent control, IC50 values of antagonists were determined by variation of the concentration of the test compounds."}}, "note": "Read-outs that look alike come from different tables or passages of the source.", "data": [{"compound": "COC(=O)c1ccccc1N", "note": "[methyl anthranilate]", "values": [{"measurement": "inhibition of PQS formation, active concentration", "setting": "[1]", "result": "millimolar concentrations"}, {"measurement": "inhibition of production of the virulence factor elastase, active concentration", "setting": "[2]", "result": "millimolar concentrations"}]}, {"compound": "CCCCCCCc1[nH]c2ccc([N+](=O)[O-])cc2c(=O)c1C(N)=O", "note": "[2-heptyl-6-nitro-4-oxo-1,4-dihydroquinoline-3-carboxamide]", "values": [{"measurement": "reduction of HHQ production", "setting": "[1]; at 15 μM", "result": 54, "unit": "%"}, {"measurement": "reduction of PQS production", "setting": "[1]; at 15 μM", "result": 37, "unit": "%"}, {"measurement": "IC50", "setting": "[3]", "result": 2000, "unit": "nM"}]}, {"compound": "Nc1cccc(F)c1C(=O)O", "note": "[Compound 6FABA]", "values": [{"measurement": "IC50", "setting": "[1]; QS inhibitor targeting the enzyme PqsA", "result": "~100000", "unit": "nM"}]}, {"compound": "Cn1cc(-c2cc(NCc3cn(-c4ccc(Oc5ccccc5)cc4)nn3)cc(C(F)(F)F)n2)cn1", "note": "[Compound 10, 2-(1-Methyl-1H-pyrazol-4-yl)-N-((1-(4-phenoxyphenyl)-1H-1,2,3-triazol-4-yl)methyl)-6-(trifluoromethyl)pyridin-4-amine]", "values": [{"measurement": "solubility at 5 min", "setting": "[4]", "result": "> 25", "unit": "µM"}, {"measurement": "half-life at 1 µM", "setting": "[5]", "result": "30 to 60", "unit": "min"}, {"measurement": "IC50", "setting": "[6]", "result": "201 to 500", "unit": "nM"}, {"measurement": "IC50", "setting": "PqsR", "result": "≤ 50", "unit": "nM"}]}]}
